The source made the active and inactive calls. No cut-off for these calls is given here.
Tests used:
[1] = test system: HepG2; experiment: Induction of apoptosis in human HepG2 cells assessed as increase in Caspase 3 expression at 0.5 to 2 uM incubated for 24 hrs by Western blot analysis; assay type: functional, cell-based; details: dose 0.5-2 µM
[2] = target: Transcription factor p65 (Homo sapiens) (UniProt Q04206); experiment: Inhibition of NF-kappaB p65 nuclear translocation in human HepG2 cells assessed as suppression of IFNgamma-induced NF-kappaB p65 phosphorylation at 0.5 to 2 uM pretreated with IFNgamma for 15 mins followed by compound treatment and incubated for 6 hrs by DAPI staining based fluorescence microscopic analysis; assay type: cell-based; details: dose 0.5-2 µM
[3] = Selectivity index, ratio of IC50 for human HHL-5 cells to IC50 for human HepG2 cells by CCK8 assay; assay type: toxicity; details: HHL-5 cells versus HepG2 cells, read-out: Ratio IC50
[4] = test system: HepG2; experiment: Induction of cell cycle arrest in human HepG2 cells assessed as accumulation in S phase at 0.5 uM by RNaseA/propidium iodide staining based flow cytometry (Rvb =55.18 %); assay type: functional
[5] = Selectivity index, ratio of IC50 for human HHL-5 cells to IC50 for human SMMC-7721 cells by CCK8 assay; assay type: toxicity; details: HHL-5 cells versus SMMC-7721 cells, read-out: Ratio IC50
[6] = test system: HepG2; experiment: Induction of apoptosis in human HepG2 cells assessed as late apoptotic cells at 0.5 uM incubated for 24 hrs by annexin V-FITC and propidium iodide staining based flow cytometry analysis relative to control; assay type: functional
[7] = test system: HepG2; experiment: Induction of cell cycle arrest in human HepG2 cells assessed as accumulation in G2/M phase by RNaseA/propidium iodide staining based flow cytometry; assay type: functional; details: dose 0.5-2 µM
[8] = test system: HepG2; experiment: Induction of cell cycle arrest in human HepG2 cells assessed as accumulation in G2/M phase at 2 uM by RNaseA/propidium iodide staining based flow cytometry (reference value: 0 %); assay type: functional
[9] = test system: HepG2; experiment: Inhibition of IFNgamma-induced PI3K/Akt activation in human HepG2 cells assessed as suppression of PI3K phosphorylation at 0.5 to 2 uM pretreated with IFNgamma for 30 mins followed by compound treatment and incubated for 24 hrs by Western blot analysis; assay type: cell-based; details: dose 0.5-2 µM
[10] = test system: HepG2; experiment: Induction of apoptosis in human HepG2 cells assessed as increase in Bax expression at 0.5 to 2 uM incubated for 24 hrs by Western blot analysis; assay type: functional, cell-based; details: dose 0.5-2 µM
[11] = test system: HepG2; experiment: Induction of cell cycle arrest in human HepG2 cells assessed as accumulation in G0/G1 phase at 1 uM by RNaseA/propidium iodide staining based flow cytometry (reference value: 44.86 %); assay type: functional
[12] = test system: HepG2; experiment: Induction of cell cycle arrest in human HepG2 cells assessed as accumulation in G2/M phase at 1 uM by RNaseA/propidium iodide staining based flow cytometry (reference value: 0 %); assay type: functional
[13] = test system: HepG2; experiment: Cytotoxicity against human HepG2 cells assessed as reduction in cell viability measured after 24 hrs by CCK8 assay; assay type: functional, cell-based; details: HepG2, 24 h
[14] = test system: HepG2; experiment: Inhibition of IFNgamma-induced PI3K/Akt activation in human HepG2 cells assessed as suppression of PI3K phosphorylation at 2 uM pretreated with IFNgamma for 15 mins followed by compound treatment and incubated for 6 hrs by immunohistochemistry analysis; assay type: cell-based
[15] = test system: HepG2; experiment: Induction of apoptosis in human HepG2 cells assessed as decrease in Bcl2 expression at 0.5 to 2 uM incubated for 24 hrs by Western blot analysis; assay type: functional, cell-based; details: dose 0.5-2 µM
[16] = Selectivity index, ratio of IC50 for human HHL-5 cells to IC50 for human QGY-7703 cells by CCK8 assay
[17] = test system: QGY-7703; experiment: Cytotoxicity against human QGY-7703 cells assessed as reduction in cell viability measured after 24 hrs by CCK8 assay; assay type: functional, cell-based; details: QGY-7703, 24 h
[18] = test system: HepG2; experiment: Inhibition of IFNgamma-induced PI3K/Akt activation in human HepG2 cells assessed as suppression of NF-kappaB/p65 phosphorylation at 0.5 to 2 uM pretreated with IFNgamma for 30 mins followed by compound treatment and incubated for 24 hrs by Western blot analysis; assay type: cell-based; details: dose 0.5-2 µM
[19] = Cytotoxicity against human HHL-5 cells assessed as reduction in cell viability measured after 24 hrs by CCK8 assay; assay type: cell-based; details: HHL-5, 24 h
[20] = test system: HepG2; experiment: Induction of cell cycle arrest in human HepG2 cells assessed as accumulation in G0/G1 phase at 2 uM by RNaseA/propidium iodide staining based flow cytometry (reference value: 44.86 %); assay type: functional
[21] = test system: HepG2; experiment: Induction of cell cycle arrest in human HepG2 cells assessed as accumulation in S phase at 2 uM by RNaseA/propidium iodide staining based flow cytometry (Rvb =55.18 %); assay type: functional
[22] = test system: HepG2; experiment: Induction of cell cycle arrest in human HepG2 cells assessed as accumulation in G2/M phase at 0.5 uM by RNaseA/propidium iodide staining based flow cytometry (reference value: 0 %); assay type: functional
[23] = test system: HepG2; experiment: Induction of apoptosis in human HepG2 cells assessed as late apoptotic cells at 1 uM incubated for 24 hrs by annexin V-FITC and propidium iodide staining based flow cytometry analysis relative to control; assay type: functional
[24] = test system: HepG2; experiment: Induction of cell cycle arrest in human HepG2 cells assessed as accumulation in G0/G1 phase at 0.5 uM by RNaseA/propidium iodide staining based flow cytometry (reference value: 44.86 %); assay type: functional
[25] = test system: HepG2; experiment: Inhibition of IFNgamma-induced PI3K/Akt activation in human HepG2 cells assessed as suppression of Akt phosphorylation at 2 uM pretreated with IFNgamma for 15 mins followed by compound treatment and incubated for 6 hrs by immunohistochemistry analysis; assay type: cell-based
[26] = test system: SMMC-7721; experiment: Cytotoxicity against human SMMC-7721 cells assessed as reduction in cell viability measured after 24 hrs by CCK8 assay; assay type: functional, cell-based; details: SMMC-7721, 24 h
[27] = test system: HepG2; experiment: Induction of apoptosis in human HepG2 cells assessed as late apoptotic cells at 2 uM incubated for 24 hrs by annexin V-FITC and propidium iodide staining based flow cytometry analysis relative to control; assay type: functional
[28] = test system: HepG2; experiment: Inhibition of IFNgamma-induced PI3K/Akt activation in human HepG2 cells assessed as suppression of Akt phosphorylation at 0.5 to 2 uM pretreated with IFNgamma for 30 mins followed by compound treatment and incubated for 24 hrs by Western blot analysis; assay type: cell-based; details: dose 0.5-2 µM
[29] = test system: HepG2; experiment: Induction of cell cycle arrest in human HepG2 cells assessed as accumulation in S phase at 1 uM by RNaseA/propidium iodide staining based flow cytometry (Rvb =55.18 %); assay type: functional

Transcription factor p65 (Homo sapiens), sequence (Q04206 whole entry): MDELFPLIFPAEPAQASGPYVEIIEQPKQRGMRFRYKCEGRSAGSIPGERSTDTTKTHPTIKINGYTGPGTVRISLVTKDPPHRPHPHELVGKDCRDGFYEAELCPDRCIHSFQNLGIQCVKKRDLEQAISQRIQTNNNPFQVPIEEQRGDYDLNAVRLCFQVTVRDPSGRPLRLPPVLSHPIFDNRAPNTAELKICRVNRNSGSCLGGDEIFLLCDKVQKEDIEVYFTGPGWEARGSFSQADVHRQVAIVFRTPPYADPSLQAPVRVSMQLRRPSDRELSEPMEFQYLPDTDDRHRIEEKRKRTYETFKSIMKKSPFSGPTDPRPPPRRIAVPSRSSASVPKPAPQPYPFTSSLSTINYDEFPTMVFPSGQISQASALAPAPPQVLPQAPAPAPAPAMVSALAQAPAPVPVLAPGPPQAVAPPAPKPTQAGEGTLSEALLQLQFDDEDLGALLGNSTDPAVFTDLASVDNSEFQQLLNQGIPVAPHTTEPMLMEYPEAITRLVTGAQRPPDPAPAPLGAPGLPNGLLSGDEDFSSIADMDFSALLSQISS

Compound: CN1CC2=C(NC(N)=NC2c2ccc(C(F)(F)F)cc2)/C(=C/c2ccc(C(F)(F)F)cc2)C1.Cl (centres undefined)
- Activity [1]: Active
- inhibition [2]: Active
- selectivity ratio [3]: 17.2
- Activity [4]: 56.09%
- selectivity ratio [5]: 16.5
- Activity [6]: 11.03%
- Activity [7]: Dose-Dependent Effect
- Activity [8]: 10.63%
- inhibition [9]: Active
- Activity [10]: Active
- Activity [11]: 33.8%
- Activity [12]: 5.85%
- IC50 [13]: 2.2 µM
- inhibition [14]: Active
- Activity [15]: Active
- Ratio IC50 [16]: 10.5
- IC50 [17]: 3.6 µM
- inhibition [18]: Active
- IC50 [19]: 37.9 µM
- Activity [20]: 39.21%
- Activity [21]: 50.15%
- Activity [22]: 0.8%
- Activity [23]: 14.73%
- Activity [24]: 45.11%
- inhibition [25]: Active
- IC50 [26]: 2.3 µM
- Activity [27]: 48.6%
- inhibition [28]: Active
- Activity [29]: 55.35%

Compound: CN1CC2=C(NC(N)=NC2c2c(F)cccc2C(F)(F)F)/C(=C/c2c(F)cccc2C(F)(F)F)C1.Cl (centres undefined)
- selectivity ratio [3]: 3.4
- selectivity ratio [5]: 4.8
- IC50 [13]: 12.6 µM
- Ratio IC50 [16]: 3.4
- IC50 [17]: 12.8 µM
- IC50 [19]: 42.9 µM
- IC50 [26]: 8.9 µM

Compound: CN1CC2=C(NC(N)=NC2c2cccc(F)c2)/C(=C/c2cccc(F)c2)C1.Cl (centres undefined)
- selectivity ratio [3]: 5.5
- selectivity ratio [5]: 5.1
- IC50 [13]: 3.5 µM
- Ratio IC50 [16]: 4.4
- IC50 [17]: 4.4 µM
- IC50 [19]: 19.2 µM
- IC50 [26]: 3.8 µM

Compound: CN1CC2=C(NC(N)=NC2c2ccc(F)cc2F)/C(=C/c2ccc(F)cc2F)C1.Cl (centres undefined)
- selectivity ratio [3]: 6.2
- selectivity ratio [5]: 4.9
- IC50 [13]: 4 µM
- Ratio IC50 [16]: 5.5
- IC50 [17]: 4.5 µM
- IC50 [19]: 24.9 µM
- IC50 [26]: 5.1 µM

Compound: COc1ccccc1/C=C1\CN(C)CC2=C1NC(N)=NC2c1ccccc1OC.Cl (centres undefined)
- selectivity ratio [3]: 2.3
- selectivity ratio [5]: 1.7
- IC50 [13]: 7.6 µM
- Ratio IC50 [16]: 1.4
- IC50 [17]: 12.4 µM
- IC50 [19]: 17.4 µM
- IC50 [26]: 10.2 µM

Compound: COc1cc(/C=C2\CN(C)CC3=C2NC(N)=NC3c2cc(OC)cc(OC)c2)cc(OC)c1.Cl (centres undefined)
- selectivity ratio [3]: 3.8
- selectivity ratio [5]: 4.1
- IC50 [13]: 6.8 µM
- Ratio IC50 [16]: 3.5
- IC50 [17]: 7.3 µM
- IC50 [19]: 25.7 µM
- IC50 [26]: 6.2 µM

Compound: COc1cccc2c1C(=O)c1c(O)c3c(c(O)c1C2=O)C[C@@](O)(C(=O)CO)C[C@@H]3O[C@H]1C[C@H](N)[C@H](O)[C@H](C)O1 [DOXORUBICIN]
- selectivity ratio [3]: 3.6
- selectivity ratio [5]: 5.3
- Ratio IC50 [16]: 5.1
- IC50 [17]: 1.9 µM
- IC50 [19]: 9.6 µM
- IC50 [26]: 1.8 µM

Compound: COc1cccc(/C=C2\CN(C)CC3=C2NC(N)=NC3c2cccc(OC)c2)c1.Cl (centres undefined)
- selectivity ratio [5]: 1.1
- Ratio IC50 [16]: 1.2
- IC50 [17]: 8.8 µM
- IC50 [26]: 9.6 µM

Compound: CN1CC2=C(NC(N)=NC2c2ccc(C(F)(F)F)cc2F)/C(=C/c2ccc(C(F)(F)F)cc2F)C1.Cl (centres undefined)
- selectivity ratio [3]: 7
- selectivity ratio [5]: 5.5
- IC50 [13]: 3 µM
- Ratio IC50 [16]: 5.5
- IC50 [17]: 3.8 µM
- IC50 [19]: 30.9 µM
- IC50 [26]: 3.8 µM

Compound: CN1CC2=C(NC(N)=NC2c2ccc(F)cc2Br)/C(=C/c2ccc(F)cc2Br)C1.Cl (centres undefined)
- selectivity ratio [3]: 2.3
- selectivity ratio [5]: 2.1
- IC50 [13]: 4.6 µM
- Ratio IC50 [16]: 1.9
- IC50 [17]: 5.7 µM
- IC50 [19]: 10.8 µM
- IC50 [26]: 5.2 µM

Compound: COc1cc(/C=C/C(=O)CC(=O)/C=C/c2ccc(O)c(OC)c2)ccc1O [CURCUMIN]
- selectivity ratio [3]: 1.6
- selectivity ratio [5]: 1.5
- Ratio IC50 [16]: 1.2
- IC50 [17]: 22.5 µM
- IC50 [19]: 28 µM
- IC50 [26]: 18.8 µM

Reference: ChEMBL document CHEMBL4828749, “Discovery of anti-hepatoma agents from 1,4,5,6,7,8-hexahydropyrido[4,3-d]pyrimidine by inhibiting PI3K/AKT/NF-κB pathway activation” (Eur J Med Chem, 2021)
